# Structures can show the parent of a compound that is named as a salt.
# What was measured:
# [1] = Solubility of active drug substances in water; format: physicochemical
# [2] = Particle size of active drug substance; format: physicochemical; settings: drug substance raw material
Structure (SMILES),solubility [1] [mg/mL],Particle size [2] [μm]
COc1ccc([C@@H]2Sc3ccccc3N(CCN(C)C)C(=O)[C@@H]2OC(C)=O)cc1 [Diltiazem hydrochloride],> 100,
NS(=O)(=O)c1cc(C(=O)O)c(NCc2ccco2)cc1Cl [Furosemide],,<10

# Reference: patent US20030211168A1, “Drug carrier pellet production process” (priority 2000, published 2003)
